Source: patent US9663475B2, “2 amino-3,4-dihydrcquinazoline derivatives and the use thereof as cathepsin D inhibitors” (Merck Patent GmbH, priority 2013, dated 2017)
Non-standard residues stand in square brackets, D forms with d. Residues, ends and D or L forms follow the SMILES beside them. *: point of attachment. Sta = CC(C)C[C@H](N)[C@@H](O)CC(=O)O; Isovaleryl = CC(C)CC(=O)*

Test system: not listed separately
Assay: Stability in plasma (h/r/m) or at pH 1.2 or pH 7.4
Type: in vitro ADME
Conditions: recovery after 4 h
Description: Stable: Recovery 75% after 4 h.

| Compound | Stability in plasma (h/r/m) or at pH 1.2 or pH 7.4 |
| --- | --- |
| COc1ccc2c(c1)CC(N1Cc3ccc(C(F)(F)F)cc3N=C1N)C2 (racemic) [Compound A16, 3-(5-methoxyindan-2-yl)-7-trifluoromethyl-3,4-dihydroquinazolin-2-ylamine] | stab;e |
| NC1=Nc2ccccc2CN1C1Cc2ccccc2C1 [Compound A1, 3-indan-2-yl-3,4-dihydroquinazolin-2-ylamine] | stable (Stable: Recovery 75% after 4 h.) |
| CCCc1ccc2c(c1)N=C(N)N(C1Cc3ccccc3C1)C2 [Compound A7, 3-indan-2-yl-7-propyl-3,4-dihydroquinazolin-2-ylamine] | stable (Stable: Recovery 75% after 4 h.) |
| NC1=Nc2cc(C(F)(F)F)ccc2CN1C1Cc2ccccc2C1 [Compound A10, 3-indan-2-yl-7-trifluoromethyl-3,4-dihydroquinazolin-2-ylamine] | stable (Stable: Recovery 75% after 4 h.) |
| COc1ccc2c(c1)CC(N1Cc3ccc(Cl)cc3N=C1N)C2 (stereo not shown) [Compound A14, 7-chloro-3-(5-methoxyindan-2-yl)-3,4-dihydroquinazolin-2-ylamine] | stable (Stable: Recovery 75% after 4 h.) |
| CCc1ccc2c(c1)N=C(N)N(C1Cc3ccc(OC)cc3C1)C2 (stereo not shown) [Compound A17, 7-ethyl-3-(5-methoxyindan-2-yl)-3,4-dihydroquinazolin-2-ylamine] | stable (Stable: Recovery 75% after 4 h.) |

Molecular target: cathepsin D isolated from the human liver (Homo sapiens (Human), UniProt P07339)
Assay: In-vitro fluorescence assay for identification of cathepsin D inhibitors
Type: biochemical
Conditions: human liver cathepsin D 1.4 nM, pH 5.5, substrate 5 μM; read-out: Cath D IC50
Description: In order to identify modulators of cathepsin D activity, a continuous enzymatic test was carried out with a synthetic peptide which carries a fluorescent group (MCA=(7-methoxycoumarin-4-yl)acetyl) which is quenched by energy transfer from a Dpn (2,4 dinitrophenyl) group on the same molecule, in Greiner 384-well nb microtitre plates. Cleavage of the peptidic substrate by cathepsin D causes an increase in the fluorescence intensity. In order to determine the efficacy of substances, the time-dependent increase in the fluorescence intensity in the presence of the substance was compared with the time-dependent increase in fluorescence in the absence of substances. The reference substance used was pepstatin A (Sigma-Aldrich). The substrate used was MCA-GKPILFFRLK(Dnp)d-R—NH2 (Enzo Life Sciences, Lörach). The enzyme employed was cathepsin D isolated from the human liver (Sigma-Aldrich) in a final concentration of 1.4 nM. The test was carried out in 100 mM sodium acetate buffer, 1.25% (v/v) of DMSO, 0.25% (w/v) of Chaps, pH 5.5. 2 μl of each substance solution with serially diluted substance concentration were added to in each case 4 μl of cathepsin D solution and incubated at room temperature for 10 min. The reaction was started by addition of 2 μl of substrate solution (final concentration 5 μM). After carrying out a starting-point fluorescence measurement (excitation wavelength 340 nm/emission wavelength 450 nm) using an Envision multilabel reader (Perkin Elmer), the reaction was incubated at room temperature for 60 min. The amount of peptide fragment cleaved off during the reaction time was subsequently measured by determination of the increase in the fluorescence intensity at 450 nm (excitation wavelength 340 nm).
The IC50 values of the compounds according to the invention can be obtained from Table 2 from Example 1.

Chain of cathepsin D isolated from the human liver (P07339 65-161): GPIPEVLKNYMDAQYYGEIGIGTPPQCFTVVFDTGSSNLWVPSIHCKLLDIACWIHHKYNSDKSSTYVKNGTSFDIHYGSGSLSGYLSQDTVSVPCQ
Chain of cathepsin D isolated from the human liver (P07339 169-412): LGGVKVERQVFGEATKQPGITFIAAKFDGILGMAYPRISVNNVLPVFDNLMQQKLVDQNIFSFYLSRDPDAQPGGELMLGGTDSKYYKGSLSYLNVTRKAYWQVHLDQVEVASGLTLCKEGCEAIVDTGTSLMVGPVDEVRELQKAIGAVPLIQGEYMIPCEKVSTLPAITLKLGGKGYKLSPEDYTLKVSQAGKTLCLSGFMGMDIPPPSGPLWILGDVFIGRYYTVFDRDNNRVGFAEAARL

| Compound | IC50 [nM] |
| --- | --- |
| COc1ccc2c(c1)CC(N1Cc3ccc(C(F)(F)F)cc3N=C1N)C2 (racemic) [Compound A16, 3-(5-methoxyindan-2-yl)-7-trifluoromethyl-3,4-dihydroquinazolin-2-ylamine] | 170 |
| COc1ccc2c(c1)C[C@@H](N1Cc3ccc(C(F)(F)F)cc3N=C1N)C2 (single isomer, unassigned) [Compound A18] | 270 |
| COc1ccc2c(c1)C[C@H](N1Cc3ccc(C(F)(F)F)cc3N=C1N)C2 (single isomer, unassigned) [Compound A19] | 320 |
| NC1=Nc2ccccc2CN1C1Cc2ccccc2C1 [Compound A1, 3-indan-2-yl-3,4-dihydroquinazolin-2-ylamine] | 2700 |
| NC1=Nc2ccccc2CN1C1Cc2ccccc2C1 [Compound A2, 3-indan-2-yl-3,4-dihydroquinazolin-2-ylamine] | 2300 |
| NC1=Nc2cc(Cl)ccc2CN1C1Cc2ccccc2C1 [Compound A3, 7-chloro-3-indan-2-yl-3,4-di hydroquinazolin-2-ylamine] | 960 |
| NC1=Nc2cccc(Cl)c2CN1C1Cc2ccccc2C1 [Compound A4, 5-chloro-3-indan-2-yl-3,4-di hydroquinazolin-2-ylamine] | 8400 |
| NC1=Nc2cc(-c3ccccc3)ccc2CN1C1Cc2ccccc2C1 [Compound A5, 3-indan-2-yl-7-phenyl-3,4-dihydroquinazolin-2-ylamine] | 2200 |
| NC1=Nc2cc(Cl)ccc2CN1C1CCCc2ccccc21 (stereo not shown) [Compound A6, 7-chloro-3-(1,2,3,4-tetrahydronaphthalen-1-yl)-3,4-dihydroquinazolin-2-ylamine] | 1400 |
| CCCc1ccc2c(c1)N=C(N)N(C1Cc3ccccc3C1)C2 [Compound A7, 3-indan-2-yl-7-propyl-3,4-dihydroquinazolin-2-ylamine] | 140 |
| COc1cc2c(cc1OC)CC(N1Cc3ccc(Cl)cc3N=C1N)C2 [Compound A8, 7-chloro-3-(5,6-dimethoxyindan-2-yl)-3,4-dihydroquinazolin-2-ylamine] | 1100 |
| COc1cc2c(cc1OC)CC(N1Cc3ccc(Cl)cc3N=C1N)C2 [Compound A9, 7-chloro-3-(5,6-dimethoxyindan-2-yl)-3,4-dihydroquinazolin-2-ylamine] | 510 |
| NC1=Nc2cc(C(F)(F)F)ccc2CN1C1Cc2ccccc2C1 [Compound A10, 3-indan-2-yl-7-trifluoromethyl-3,4-dihydroquinazolin-2-ylamine] | 300 |
| COc1ccc2c(c1OC)CC(N1Cc3ccc(Cl)cc3N=C1N)C2 (stereo not shown) [Compound A11, 7-chloro-3-(4,5-dimethoxyindan-2-yl)-3,4-dihydroquinazolin-2-ylamine] | 780 |
| COc1cccc2c1CC(N1Cc3ccc(Cl)cc3N=C1N)C2 (stereo not shown) [Compound A12, 7-chloro-3-(4-methoxyindan-2-yl)-3,4-dihydroquinazolin-2-ylamine] | 810 |
| NC1=Nc2cc(C(F)(F)F)ccc2CN1C1CCc2ccccc21 (stereo not shown) [Compound A13, 3-indan-1-yl-7-trifluoromethyl-3,4-dihydroquinazolin-2-ylamine] | 2500 |

| Compound | IC50 [nM] |
| --- | --- |
| COc1ccc2c(c1)CC(N1Cc3ccc(Cl)cc3N=C1N)C2 (stereo not shown) [Compound A14, 7-chloro-3-(5-methoxyindan-2-yl)-3,4-dihydroquinazolin-2-ylamine] | 620 |
| NC1=Nc2cc(C(F)(F)F)ccc2CN1C1c2ccccc2-c2ccccc21 [Compound A15, 3-(9H-fluoren-9-yl)-7-trifluoromethyl-3,4-dihydroquinazolin-2-ylamine] | 1200 |
| CCc1ccc2c(c1)N=C(N)N(C1Cc3ccc(OC)cc3C1)C2 (stereo not shown) [Compound A17, 7-ethyl-3-(5-methoxyindan-2-yl)-3,4-dihydroquinazolin-2-ylamine] | 270 |
| NC1=Nc2cc(C(F)(F)F)ccc2CN1C1CCc2ccccc2C1 (stereo not shown) [Compound A20, 3-(1,2,3,4-tetrahydronaphthalen-2-yl)-7-trifluoromethyl-3,4-dihydroquinazolin-2-ylamine] | 3800 |
| NC1=Nc2cc(C(=O)N3CCc4ccccc43)ccc2CN1C1Cc2ccccc2C1 [Compound A21, (2-amino-3-indan-2-yl-3,4-dihydroquinazolin-7-yl)-(2,3-dihydroindol-1-yl)methanone] | 220 |
| COc1ccc2c(c1)CN(C(=O)c1ccc3c(c1)N=C(N)N(C1Cc4ccccc4C1)C3)C2 [Compound A22, (2-amino-3-indan-2-yl-3,4-dihydroquinazolin-7-yl)-(5-methoxy-1,3-dihydroisoindol-2-yl)methanone] | 180 |
| CCN(CC)C(=O)c1ccc2c(c1)N=C(N)N(C1Cc3ccccc3C1)C2 [Compound A23, N,N-diethyl-2-amino-3-indan-2-yl-3,4-dihydroquinazoline-7-carboxamide] | 2900 |
| CCN(CC)C(=O)c1ccc2c(c1)N=C(N)N(C1Cc3ccccc3C1)C2 [Compound A24, N,N-diethyl-2-amino-3-indan-2-yl-3,4-dihydroquinazoline-7-carboxamide] | 4200 |
| NC1=Nc2cc(C(=O)N3CCOCC3)ccc2CN1C1Cc2ccccc2C1 [Compound A25, (2-amino-3-indan-2-yl-3,4-dihydroquinazolin-7-yl)morpholin-4-ylmethanone] | 2500 |
| NC1=Nc2cc(C(=O)N3CCOCC3)ccc2CN1C1Cc2ccccc2C1 [Compound A26, (2-amino-3-indan-2-yl-3,4-dihydroquinazolin-7-yl)morpholin-4-ylmethanone] | 3000 |
| Nc1nc2cc(C(F)(F)F)ccc2c(=O)n1C1Cc2ccccc2C1 [Compound A27, 2-amino-3-indan-2-yl-7-trifluoromethyl-3H-quinazolin-4-one] | 3300 |
| NNc1nc2cc(C(F)(F)F)ccc2c(=O)n1C1Cc2ccccc2C1 [Compound A28, 2-hydrazino-3-indan-2-yl-7-trifluoromethyl-3H-quinazolin-4-one] | 24000 |
| NC1=Nc2cc(C(=O)N3CCCC3Cc3ccccc3)ccc2CN1C1Cc2ccccc2C1 (stereo not shown) [Compound A29, (2-amino-3-indan-2-yl-3,4-dihydroquinazolin-7-yl)-(2-benzylpyrrolidin-1-yl)methanone] | 310 |
| NC1=Nc2cc(C(=O)N3CCOc4ccccc43)ccc2CN1C1Cc2ccccc2C1 [Compound A30, (2-amino-3-indan-2-yl-3,4-dihydroquinazolin-7-yl)-(2,3-dihydrobenzo[1,4]oxazin-4-yl)methanone] | 240 |
| CO[C@@H]1c2ccccc2C[C@@H]1N1Cc2ccc(C(F)(F)F)cc2NC1=N [Compound A31, 3-((1R,2S)-1-methoxyindan-2-yl)-7-trifluoromethyl-3,4-dihydro-1H-quinazolin-2-ylidenamine] | 2500 |

Test system: rat knee joint
Assay: Anti-hyperalgesic effect in animals: carrageenan-induced knee joint inflammation, swelling and Hargreaves test
Type: in vivo
Conditions: intra-articular, 30 minutes before CAR, TAC 10 μg/joint
Description: In order to induce an inflammation reaction, a carrageenan solution (CAR, 1%, 50 μl) was injected intra-articularly on one side into a rat knee joint. The uninjected side was used for control purposes. Six animals per group were used. The threshold was determined by means of a micrometer screw (medial-lateral on the knee joint), and the thermal hyperalgesia was determined by means of a directed infrared light source by the Hargreaves method (Hargreaves et al., 1988) on the sole of the foot. […] Experimental description of thermal hyperalgesia (Hargreaves test): the experimental animal is placed in a plastic chamber on a quartz sheet. Before testing, the experimental animal is firstly given about 5-15 minutes time to familiarise itself with the environment. As soon as the experimental animal no longer moves so frequently after the familiarisation phase (end of the exploration phase), the infrared light source, whose focus is in the plane of the glass bottom, is positioned directly beneath the rear paw to be stimulated. […] Light reflected by the paw is recorded as long as the experimental animal sits still. Withdrawal of the paw interrupts this reflection, after which the infrared light source is switched off and the time from switching on to switching off is recorded. […]

| Compound | reduction of CAR-induced swelling |
| --- | --- |
| C[C@]12C=CC(=O)C=C1CC[C@H]1[C@@H]3C[C@@H](O)[C@](O)(C(=O)CO)[C@@]3(C)C[C@H](O)[C@@]12F [TAC, Triamcinolone] | capable of reducing the CAR-induced swelling |

Test system: cartilage explant cultures
Assay: not given
Conditions: pH 5.5, explant cultures (mouse, cow or human); cited from earlier work

| Compound | inhibition of autodigestion of the cartilage |
| --- | --- |
| CC(C)CC(=O)N[C@H](C(=O)N[C@H](C(=O)N[C@@H](CC(C)C)[C@@H](O)CC(=O)N[C@@H](C)C(=O)N[C@@H](CC(C)C)[C@@H](O)CC(=O)O)C(C)C)C(C)C [pepstatin] (Isovaleryl-VV[Sta]A[Sta]-OH) | inhibited virtually completely |
| CC(C)c1nc(CN(C)C(=O)N[C@H](C(=O)N[C@@H](Cc2ccccc2)C[C@H](O)[C@H](Cc2ccccc2)NC(=O)OCc2cncs2)C(C)C)cs1 [ritonavir] | inhibited virtually completely |
